Source: the supplement of paper PMC10331698
± gives the standard deviation of the averaged measurements.

Tests used:
Test in all cases: level (log10 ratio to DMSO vehicle control); higher = higher biomarker level / cell amount than vehicle control
[1] = compound: FC(F)(F)C(F)(F)C(F)(F)C(F)(F)C(F)(F)C(F)(F)CC1CO1 [3-(Perfluorohexyl)-1,2-epoxypropane]; conditions: in DMSO
Experimental: (§1)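 BioMAP Diversity Plus panel of 12 human primary cell co-culture systems (3C, 4H, LPS, SAg, BT, BF4T, BE3C, CASM3C, HDF3CGF, KF3CT, MyoF, Mphg). Compounds were added 1 h before stimulation and left for 24 h (MyoF 48 h; BT 72 h for soluble read-outs or 6 d for IgG). Biomarkers were read by ELISA, cytotoxicity by SRB, PBMC viability and proliferation by Alamar Blue. Each well value was divided by the mean of 8 DMSO control wells on the same plate and log10 transformed; duplicate blinded samples were tested at 4 concentrations.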

[2] = compound: NS(=O)(=O)C(F)(F)C(F)(F)C(F)(F)C(F)(F)C(F)(F)C(F)(F)F [Perfluorohexanesulfonamide]; conditions: in DMSO
Experimental: as §1

[3] = compound: NC(=O)C(F)(F)C(F)(F)C(F)(F)C(F)F; conditions: in DMSO
Experimental: as §1

[4] = compound: O=S(=O)(O)CCC(F)(F)C(F)(F)C(F)(F)C(F)(F)C(F)(F)C(F)(F)F [6:2 Fluorotelomer sulfonic acid]; conditions: in DMSO
Experimental: as §1

[5] = compound: FC(F)(F)C(F)(F)C(F)(F)CC1CO1 [1H,1H-Heptafluorobutyl epoxide]; conditions: in DMSO
Experimental: as §1

[6] = compound: O=S(=O)(F)C(F)(F)C(F)(F)C(F)(F)C(F)(F)C(F)(F)C(F)(F)C(F)(F)C(F)(F)F [Perfluorooctanesulfonyl fluoride]; conditions: in DMSO
Experimental: as §1

[7] = compound: O=S(=O)(O)C(F)(F)C(F)(F)C(F)(F)C(F)(F)C(F)(F)C(F)(F)C(F)(F)C(F)(F)C(F)(F)C(F)(F)F [Sodium perfluorodecanesulfonate]; conditions: in DMSO
Experimental: as §1

[8] = compound: C=CC(=O)OCC(F)(F)C(F)(F)C(F)(F)COC(=O)C=C [1H,1H,5H,5H-Perfluoro-1,5-pentanediol diacrylate]; conditions: 6700 nM; in DMSO
Experimental: as §1

[9] = compound: FC(F)(F)C(F)(F)C(F)(F)C(F)(F)C(F)(F)C(F)(F)C(F)(F)I [1-Iodopentadecafluoroheptane]; conditions: in DMSO
Experimental: as §1

[10] = compound: FC(F)(F)C(F)(F)C(F)(F)CI [Heptafluorobutyl iodide]; conditions: in DMSO
Experimental: as §1

[11] = compound: C=C(C)C(=O)OCCC(F)(F)C(F)(F)C(F)(F)C(F)(F)C(F)(F)C(F)(F)F [6:2 Fluorotelomer methacrylate]; conditions: in DMSO
Experimental: as §1

[12] = compound: O=C(O)C=CC(F)(C(F)(F)F)C(F)(F)F [3-(Perfluoroisopropyl)-2-propenoic acid]; conditions: in DMSO
Experimental: as §1

[13] = compound: OCC(F)(F)C(F)(F)C(F)(F)CO [Hexafluoroamylene glycol]; conditions: in DMSO
Experimental: as §1

[14] = compound: NC(=O)C(F)(F)C(F)(F)C(F)(F)C(F)(F)C(N)=O [Octafluoroadipamide]; conditions: in DMSO
Experimental: as §1

[15] = compound: COC(=O)C(F)(F)C(F)(F)OC(F)(C(F)(F)F)C(F)(F)OC(F)=C(F)F [Methyl perfluoro(3-(1-ethenyloxypropan-2-yloxy)propanoate)]; conditions: in DMSO
Experimental: as §1

[16] = compound: O=C(O)C(F)(F)C(F)(F)C(F)(F)C(F)(F)C(F)(F)C(F)(F)C(F)(F)C(F)(F)C(F)(F)C(F)F [11-H-Perfluoroundecanoic acid]; conditions: in DMSO
Experimental: as §1

[17] = compound: O=S(=O)(Cl)C(F)(F)C(F)(F)C(F)(F)C(F)(F)C(F)(F)C(F)(F)C(F)(F)C(F)(F)F [Perfluoro-1-octanesulfonyl chloride]; conditions: in DMSO
Experimental: as §1

[18] = compound: FC(F)(F)C(F)(F)CNCC(F)(F)C(F)(F)F [Bis(1H,1H-perfluoropropyl)amine]; conditions: in DMSO
Experimental: as §1

[19] = compound: NC(=O)C(F)(F)C(F)(F)C(F)(F)C(F)(F)F [Nonafluoropentanamide]; conditions: in DMSO
Experimental: as §1

Question: HDF3CGF:CXCL9/MIG was tested. Which “level (log10)” value ([1]; 6700 nM) did it give?
Answer: 0.0095 ± 0.0092

Question: What about the “level (log10)” value ([1]; 20000 nM) of the same test system?
Answer: 0.0085 ± 0.016

Question: What about the “level (log10)” value ([1]; 60000 nM) of the same test system?
Answer: -0.0085 ± 0.013

Question: And the “level (log10)” value ([2]; 6700 nM)?
Answer: 0.0165 ± 0.019

Question: What about the “level (log10)” value ([2]; 20000 nM) of the same test system?
Answer: 0.01 ± 0.028

Question: What about the “level (log10)” value ([2]; 60000 nM) of the same test system?
Answer: -0.061 ± 0.037

Question: What about the “level (log10)” value ([3]; 6700 nM) of the same test system?
Answer: 0.0055 ± 0.00071

Question: What about the “level (log10)” value ([3]; 20000 nM) of the same test system?
Answer: -0.0065 ± 0.012

Question: And the “level (log10)” value ([3]; 60000 nM)?
Answer: -0.0025 ± 0.0035

Question: And the “level (log10)” value ([4]; 6700 nM)?
Answer: -0.013 ± 0.048

Question: What about the “level (log10)” value ([4]; 20000 nM) of the same test system?
Answer: -0.0395 ± 0.018

Question: What about the “level (log10)” value ([4]; 60000 nM) of the same test system?
Answer: -0.046 ± 0.038

Question: What about the “level (log10)” value ([5]; 6700 nM) of the same test system?
Answer: -0.03 ± 0.031

Question: What about the “level (log10)” value ([5]; 20000 nM) of the same test system?
Answer: -0.03 ± 0.068

Question: What about the “level (log10)” value ([5]; 60000 nM) of the same test system?
Answer: -0.062 ± 0.05

Question: What about the “level (log10)” value ([6]; 6700 nM) of the same test system?
Answer: -0.01 ± 0.0028

Question: What about the “level (log10)” value ([6]; 20000 nM) of the same test system?
Answer: 0.0125 ± 0.0092

Question: What about the “level (log10)” value ([6]; 60000 nM) of the same test system?
Answer: -0.02 ± 0.017

Question: And the “level (log10)” value ([7]; 1500 nM)?
Answer: -0.0085 ± 0.022

Question: And the “level (log10)” value ([7]; 4400 nM)?
Answer: -0.0565 ± 0.00071

Question: And the “level (log10)” value ([7]; 13000 nM)?
Answer: 0.029 ± 0.0085

Question: What about the “level (log10)” value ([7]; 40000 nM) of the same test system?
Answer: 0.049 ± 0.014

Question: And the “level (log10)” value [8]?
Answer: -0.779

Question: And the “level (log10)” value ([9]; 6700 nM)?
Answer: -0.016 ± 0.0042

Question: And the “level (log10)” value ([9]; 20000 nM)?
Answer: 0.0015 ± 0.0064

Question: And the “level (log10)” value ([10]; 6700 nM)?
Answer: -0.012 ± 0.0071

Question: What about the “level (log10)” value ([10]; 20000 nM) of the same test system?
Answer: -0.0305 ± 0.016

Question: And the “level (log10)” value ([10]; 60000 nM)?
Answer: -0.022 ± 0.011

Question: What about the “level (log10)” value ([11]; 6700 nM) of the same test system?
Answer: 0.0025 ± 0.019

Question: And the “level (log10)” value ([11]; 20000 nM)?
Answer: 0.0095 ± 0.00071

Question: And the “level (log10)” value ([11]; 60000 nM)?
Answer: 0.015 ± 0.0085

Question: What about the “level (log10)” value ([12]; 6700 nM) of the same test system?
Answer: 0.017 ± 0.0071

Question: What about the “level (log10)” value ([12]; 20000 nM) of the same test system?
Answer: 0.02 ± 0.011

Question: What about the “level (log10)” value ([12]; 60000 nM) of the same test system?
Answer: 0.011 ± 0.023

Question: And the “level (log10)” value ([13]; 6700 nM)?
Answer: -0.001 ± 0.038

Question: What about the “level (log10)” value ([13]; 20000 nM) of the same test system?
Answer: 0.0055 ± 0.035

Question: And the “level (log10)” value ([13]; 60000 nM)?
Answer: -0.035 ± 0.083

Question: What about the “level (log10)” value ([14]; 6700 nM) of the same test system?
Answer: -0.006 ± 0.0014

Question: And the “level (log10)” value ([14]; 20000 nM)?
Answer: -0.0055 ± 0.015

Question: What about the “level (log10)” value ([14]; 60000 nM) of the same test system?
Answer: 0.016 ± 0.025

Question: And the “level (log10)” value ([15]; 6700 nM)?
Answer: 0.01 ± 0.0014

Question: And the “level (log10)” value ([15]; 20000 nM)?
Answer: -0.063 ± 0.014

Question: And the “level (log10)” value ([16]; 6700 nM)?
Answer: -0.089 ± 0.0099

Question: And the “level (log10)” value ([16]; 20000 nM)?
Answer: -0.222 ± 0.014

Question: And the “level (log10)” value ([17]; 6700 nM)?
Answer: -0.0115 ± 0.019

Question: And the “level (log10)” value ([17]; 20000 nM)?
Answer: -0.0165 ± 0.018

Question: And the “level (log10)” value ([17]; 60000 nM)?
Answer: -0.0005 ± 0.026

Question: What about the “level (log10)” value ([18]; 6700 nM) of the same test system?
Answer: -0.002 ± 0.0028

Question: And the “level (log10)” value ([18]; 20000 nM)?
Answer: -0.0025 ± 0.018

Question: What about the “level (log10)” value ([18]; 60000 nM) of the same test system?
Answer: 0.004 ± 0.024

Question: What about the “level (log10)” value ([19]; 6700 nM) of the same test system?
Answer: 0.017 ± 0.0028

Question: What about the “level (log10)” value ([19]; 20000 nM) of the same test system?
Answer: -0.0025 ± 0.0064

Question: And the “level (log10)” value ([19]; 60000 nM)?
Answer: 0.005 ± 0.018
